Measured values reported in patent US12630534B2 (TAKEDA PHARMACEUTICAL COMPANY LIMITED, priority 2020, dated 2026).

Biological target: T1, human GPR139 (Homo sapiens, UniProt Q6DWJ6)
T1 construct: expressed in transfected cells; host or cells: CHO-TREx (Life Technologies) cells, expression induced with doxycycline
T1 sequence (Q6DWJ6 1-353): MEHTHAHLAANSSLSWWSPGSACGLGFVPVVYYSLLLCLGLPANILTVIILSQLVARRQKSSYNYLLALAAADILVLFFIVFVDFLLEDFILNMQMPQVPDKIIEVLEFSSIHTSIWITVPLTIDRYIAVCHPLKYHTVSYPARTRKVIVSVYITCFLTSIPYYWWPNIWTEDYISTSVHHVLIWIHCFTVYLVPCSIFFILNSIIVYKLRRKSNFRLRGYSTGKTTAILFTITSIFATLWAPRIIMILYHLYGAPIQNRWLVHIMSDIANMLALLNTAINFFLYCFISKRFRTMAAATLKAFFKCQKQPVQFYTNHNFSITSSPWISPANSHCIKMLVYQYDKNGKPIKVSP
Assay: Inhibition rate of the amount of IP1 in GPR139-expressed CHO cells (inverse agonist assay, Test Example 2)
Assay type: cell-based
Details: CHO, relative value, inhibition rate of Example Compound 2 in Test Example 1 defined as 100%
Description: The measurement of IP1 was made using an IP-ONE HTFR assay kit (cis-bio) and CHO-TREx (Life Technologies) cells stably transfected with GPR139. The CHO-TREx cells expressed human GPR139 with a tetracycline-inducing element. The cells were cultured in a medium containing F12K and 10% tetracycline-free FBS, and the expression of human GPR139 was induced over the course of 17 hours under conditions of 37° C. and 5% CO2 in the presence of 2 μg/mL of doxycycline (Clontech, 631311) in the growth medium on the day before assay. On the day of the test, after the cells were washed with 10 mL of PBS, the cells were detached with TrypLE Express (Life Technologies) and centrifuged at 1,000 rpm to form pellets, and a cell suspension was then prepared using a stimulation buffer (cis-bio, included in the IP-ONE HTRF assay kit).
The compound was diluted with the stimulation buffer, and 4 μL was added to a 384-well white assay plate (Greiner). The cell suspension was added so that there were 2000 cells per well, and the assay plate was left to stand for 40 minutes at 37° C. Equal amounts of IP1-d2 and Ab-Crp solutions (both available from cis-bio, included in the IP-ONE HTRF assay kit) prepared with a lysis buffer (cis-bio, included in the IP-ONE HTRF assay kit) were mixed, and 4 μL was added to the assay plate and left to stand for one hour at room temperature. After the fluorescence strengths of two wavelengths were measured by the HTRF settings of Envision (PerkinElmer), the value of Ratio={(Signal 665 nm)/(Signal 615 nm)}×10000 was calculated.
Measurement of the Inhibition Rate of the Amount of IP1 in GPR139-Expressed CHO Cells (Inverse Agonist Assay)
The activities of the compounds of Examples 1 and 3 to 167 were expressed as relative values in Table 2 by measuring the inhibition rate of the amount of IP1 with the same method as in Test Example 1 and defining the inhibition rate of the amount of IP1 of Example Compound 2 in Test Example 1 as […].

| inhibition at 30 µM [%] | SMILES |
| --- | --- |
| 100 | CCn1cc(Cn2c(C)cn(-c3cc(N4CCO[C@H](C)C4)cc(C(F)(F)F)c3F)c2=O)cn1 [Example 25, 3-[(1-ethyl-1H-pyrazol-4-yl)methyl]-1-{2-fluoro-5-[(2R)-2-methylmorpholin-4-yl]-3-(trifluoromethyl)phenyl}-4-methyl-1,3-dihydro-2H-imidazol-2-one] |
| 100 | CCn1cc(Cn2ccn(-c3nc(N4CCO[C@H](C)C4)cc(C(F)(F)F)c3F)c2=O)cn1 [Example 26, 1-[(1-ethyl-1H-pyrazol-4-yl)methyl]-3-{3-fluoro-6-[(2R)-2-methylmorpholin-4-yl]-4-(trifluoromethyl)pyridin-2-yl}-1,3-dihydro-2H-imidazol-2-one] |
| 99 | CCn1cc(Cn2cnn(-c3cc(N4CCO[C@H](C)C4)cc(C(F)(F)F)c3F)c2=O)cn1 [Example 27, 4-[(1-ethyl-1H-pyrazol-4-yl)methyl]-2-{2-fluoro-5-[(2R)-2-methylmorpholin-4-yl]-3-(trifluoromethyl)phenyl}-2,4-dihydro-3H-1,2,4-triazol-3-one] |
| 99 | CCn1cc(Cn2cc(C)n(-c3cc(N4CCO[C@@H](C)C4)cc(C(F)(F)F)c3)c2=O)cn1 [Example 28, 1-[(1-ethyl-1H-pyrazol-4-yl)methyl]-4-methyl-3-{3-[(2S)-2-methylmorpholin-4-yl]-5-(trifluoromethyl)phenyl}-1,3-dihydro-2H-imidazol-2-one] |
| 99 | CCn1cc(Cn2cc(C)n(-c3cc(N4CCOC(C)(C)C4)cc(C(F)(F)F)c3)c2=O)cn1 [Example 29, 3-[3-(2,2-dimethylmorpholin-4-yl)-5-(trifluoromethyl)phenyl]-1-[(1-ethyl-1H-pyrazol-4-yl)methyl]-4-methyl-1,3-dihydro-2H-imidazol-2-one] |
| 99 | CCn1cc(Cn2c(C)cn(-c3nc(N4CCO[C@H](C)C4)cc(C(F)(F)F)c3F)c2=O)cn1 [Example 30] |
| 100 | CCn1cc(Cn2ccn(-c3cc(N4C[C@@H](C)O[C@@H](C)C4)cc(C(F)(F)F)c3F)c2=O)cn1 [Example 31, 1-{5-[(2R,6S)-2,6-dimethylmorpholin-4-yl]-2-fluoro-3-(trifluoromethyl)phenyl}-3-[(1-ethyl-1H-pyrazol-4-yl)methyl]-1,3-dihydro-2H-imidazol-2-one] |
| 98 | CCn1cc(Cn2ccn(-c3cc(N4CCO[C@H](C)C4)cc(Cl)c3F)c2=O)cn1 [Example 32, 1-{3-chloro-2-fluoro-5-[(2R)-2-methylmorpholin-4-yl]phenyl}-3-[(1-ethyl-1H-pyrazol-4-yl)methyl]-1,3-dihydro-2H-imidazol-2-one] |
| 100 | CCn1cc(Cn2cc(C)n(-c3cc(C4CCC(F)(F)CC4)cc(C(F)(F)F)c3)c2=O)cn1 [Example 33, 3-[3-(4,4-difluorocyclohexyl)-5-(trifluoromethyl)phenyl]-1-[(1-ethyl-1H-pyrazol-4-yl)methyl]-4-methyl-1,3-dihydro-2H-imidazol-2-one] |
| 100 | CCn1cc(Cn2ccn(-c3cc(N4C[C@@H](C)O[C@H](C)C4)cc(C(F)(F)F)c3F)c2=O)cn1 [Example 34, 1-{5-[(2R,6R)-2,6-dimethylmorpholin-4-yl]-2-fluoro-3-(trifluoromethyl)phenyl}-3-[(1-ethyl-1H-pyrazol-4-yl)methyl]-1,3-dihydro-2H-imidazol-2-one] |
| 99 | CC(C)n1cc(Cn2ccn(-c3cc(N4CCO[C@H](C)C4)cc(C(F)(F)F)c3F)c2=O)cn1 [Example 35, 1-{2-fluoro-5-[(2R)-2-methylmorpholin-4-yl]-3-(trifluoromethyl)phenyl}-3-{[1-(propan-2-yl)-1H-pyrazol-4-yl]methyl}-1,3-dihydro-2H-imidazol-2-one] |
| 101 | CCn1cc(Cn2ccn(-c3cc(N4CCC(F)(F)CC4)cc(C(F)(F)F)c3F)c2=O)cn1 [Example 36, 1-[5-(4,4-difluoropiperidin-1-yl)-2-fluoro-3-(trifluoromethyl)phenyl]-3-[(1-ethyl-1H-pyrazol-4-yl)methyl]-1,3-dihydro-2H-imidazol-2-one] |
| 99 | CCn1cc(Cn2ccn(-c3cc(N4CCCC(F)(F)C4)cc(C(F)(F)F)c3F)c2=O)cn1 [Example 37, 1-[5-(3,3-difluoropiperidin-1-yl)-2-fluoro-3-(trifluoromethyl)phenyl]-3-[(1-ethyl-1H-pyrazol-4-yl)methyl]-1,3-dihydro-2H-imidazol-2-one] |
| 99 | CCn1cc(Cn2cc(C)n(-c3cc(N(C)C4CCOCC4)cc(C(F)(F)F)c3)c2=O)cn1 [Example 38, 1-[(1-ethyl-1H-pyrazol-4-yl)methyl]-4-methyl-3-{3-[methyl(oxan-4-yl)amino]-5-(trifluoromethyl)phenyl}-1,3-dihydro-2H-imidazol-2-one] |
| 99 | CCn1cc(Cn2ccn(-c3cc(N4CCC(F)(F)C4)cc(C(F)(F)F)c3F)c2=O)cn1 [Example 39, 1-[5-(3,3-difluoropyrrolidin-1-yl)-2-fluoro-3-(trifluoromethyl)phenyl]-3-[(1-ethyl-1H-pyrazol-4-yl)methyl]-1,3-dihydro-2H-imidazol-2-one] |
| 101 | CCn1cc(Cn2ccn(-c3cc(N4CCOC(F)(F)C4)cc(C(F)(F)F)c3F)c2=O)cn1 [Example 40, 1-[5-(2,2-difluoromorpholin-4-yl)-2-fluoro-3-(trifluoromethyl)phenyl]-3-[(1-ethyl-1H-pyrazol-4-yl)methyl]-1,3-dihydro-2H-imidazol-2-one] |
| 101 | CCn1cc(Cn2cc(C)n(-c3cc(N4CCOC(F)(F)C4)cc(C(F)(F)F)c3)c2=O)cn1 [Example 41, 3-[3-(2,2-difluoromorpholin-4-yl)-5-(trifluoromethyl)phenyl]-1-[(1-ethyl-1H-pyrazol-4-yl)methyl]-4-methyl-1,3-dihydro-2H-imidazol-2-one] |
| 99 | CCn1cc(Cn2ccn(-c3nc(N4CCO[C@H](C)C4)cc(C(F)(F)F)c3C)c2=O)cn1 [Example 42, 1-[(1-ethyl-1H-pyrazol-4-yl)methyl]-3-{3-methyl-6-[(2R)-2-methylmorpholin-4-yl]-4-(trifluoromethyl)pyridin-2-yl}-1,3-dihydro-2H-imidazol-2-one] |
| 100 | CCn1cc(Cn2ccn(-c3cc(N4CCOC5(CC5)C4)cc(C(F)(F)F)c3F)c2=O)cn1 [Example 43, 1-[(1-ethyl-1H-pyrazol-4-yl)methyl]-3-[2-fluoro-5-(4-oxa-7-azaspiro[2.5]octan-7-yl)-3-(trifluoromethyl)phenyl]-1,3-dihydro-2H-imidazol-2-one] |
| 100 | CCn1cc(Cn2ccn(-c3cc(N4CCO[C@H](C)C4)cc(C4CC4)c3F)c2=O)cn1 [Example 44, 1-{3-cyclopropyl-2-fluoro-5-[(2R)-2-methylmorpholin-4-yl]phenyl}-3-[(1-ethyl-1H-pyrazol-4-yl)methyl]-1,3-dihydro-2H-imidazol-2-one] |
| 101 | CCn1cc(Cn2c(C)cn(-c3nc(N4CCO[C@H](C)C4)cc(C(F)(F)F)c3C)c2=O)cn1 [Example 45, 3-[(1-ethyl-1H-pyrazol-4-yl)methyl]-4-methyl-1-{3-methyl-6-[(2R)-2-methylmorpholin-4-yl]-4-(trifluoromethyl)pyridin-2-yl}-1,3-dihydro-2H-imidazol-2-one] |
